Laboratory results published in patent publication US8420657B2 (Novartis AG, priority 2008, dated 2013).

Experiments:
GST-JAK2(808-1132) = target: T1, GST-JAK2(808-1132) (Homo sapiens, UniProt O60674); assay: JAK2 kinase assay (Caliper mobility shift, LabChip 3000); type: biochemical
T1 construct: GST-JAK2(808-1132); purchased Invitrogen (Carlsbad, USA) #4288
Outline: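 Eight-point compound series (final 10–0.003 μM) tested on purchased GST-JAK2 kinase domain (808-1132). Peptide FITC-JAK3tide plus ATP reacted 60 min, 30 °C, then quenched with EDTA; turnover from charge-based separation of substrate and product.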

[1] = system: JAK1/JAK2-dependent nuclear translocation of STAT1-GFP in HT1080 fibrosarcoma cells; assay: STAT1 nuclear translocation assay (Cellomics), IFN-γ stimulated HT1080 STAT1-GFP cells; type: cell-based
From the text: The medium-throughput (96-well format) cellular automated fluorescence microscopy Cellomics assay can be routinely used to assess the functional activation of Janus Kinases (JAKs), based on the nuclear translocation of their substrate, Signal Transducer and Activator of Transcription (STAT). Nuclear translocation can be monitored either in HT1080 fibrosarcoma cells stably transfected with STAT1 fused to Green Fluorescence Protein (GFP) or in U-2 OS osteosarcoma cells stably transfected with STAT5 fused to Green Fluorescence Protein (GFP). Stimulation of HT1080 cells with interferon-γ (IFN-γ) results in JAK1/JAK2-dependent nuclear translocation of STAT1-GFP, whereas stimulation of U-2 OS cells with recombinant human erythropoietin (rhEpo) results in JAK2-dependent nuclear translocation of STAT5-GFP, both of which can be quantified using the Cellomics Cyto/NucTrans software package. This assay may be used to provide an assessment of the nuclear-cytoplasmic differential (NCD) of STAT-GFP using Hoechst dye to define the boundaries of the nucleus.
HT1080 fibrosarcoma cells may be obtained from ATCC and can be cultured in alpha Modified Eagle Medium with 10% FCS. Cells can be transfected with pEGFP-N2 STAT1 using Fugene 6 Transfection Reagent following the manufacturers' protocol. 24 hours after transfection the medium can be replaced and selected in 1 mg/ml Geneticin.
Compounds can be dissolved in DMSO to a final stock concentration of 10 mM and stored as aliquots at 4° C. Compounds may be pre-diluted in 100% DMSO at 10 mM, 3 mM 1 mM, 0.3 mM, 0.1 mM, 0.03 mM, 0.01 mM and 0.003 mM. Subsequently, compounds may be diluted in medium and added in 50 μl to the cells. The final compound concentrations tested may be 10 μM, 3 μM 1 μM, 0.3 μM, 0.1 μM, 0.03 μM, 0.01 μM and 0.003 μM and the final DMSO concentration can be 0.1%.
HT1080 STAT1-GFP cells may be seeded at a density of 10,000 cells per well in clear-bottom black 96-well Packard View-Plates™. 16-24 hours later, the cells can be treated for 2 hours with 100 ng/ml IFN-γ, washed twice in pre-warmed PBS and fixed in 200 μl of pre-warmed fixation solution (PBS, 3.7% Formaldehyde) for 10 minutes. The plates may be washed twice in 200 μl PBS and incubated, protected from light, in 100 μl of DNA-staining solution (PBS, 0.5 μg/ml Hoechst-33342) for 1 minute. The plates may then be washed once in PBS, and 200 μl PBS finally added per well. The plates, being finally covered with a black adhesive, may be either read directly or stored at 4° C. for later imaging. Where appropriate, the compounds may be added 30 min before stimulation with IFN-γ.
The plates can be read on a Cellomics® ArrayscanII automated fluorescence microscope plate reader equipped with a Mercury-Xenon white light illumination source and a Zeiss Axiovert inverted microscope, using the XF100 dichroic/emission filter cube and matching excitation filters, 10× magnification, and a 0.3 numerical aperture objective. Image acquisition and analysis can be performed using a customized protocol based on the ‘NuclearTranslocation’ Bioapplication. For each well, multiple images (fields) can be acquired until a minimum of 1000 cells are counted using two 2 channels: Channel 1 (Hoechst)=focus+nuclear mask, Channel 2 (GFP)=signal quantification in mask areas as outlined below. Nuclei may be first identified based on the Hoechst staining and a mask generated for each nucleus that then serves as a template to generate a circle (eroded inwards by 1 pixel) and a 3 pixel-wide collar-like ring (off-set outwards by 1 pixel), in which the nuclear and cytoplasmic intensity of GFP, respectively, are quantified in the corresponding channel. High content analysis yields numerous measurements per cell and the GFP intensity differential between the nuclear and the cytoplasmic masks may be chosen as a measure of sub-cellular STAT-GFP relocation. The resulting values may be averaged for all cells in the well to return a single measurement plus standard deviation. […]

[2] = Homo sapiens, HT-1080, STAT1 translocation pathway

T1 sequence (O60674 808-1132): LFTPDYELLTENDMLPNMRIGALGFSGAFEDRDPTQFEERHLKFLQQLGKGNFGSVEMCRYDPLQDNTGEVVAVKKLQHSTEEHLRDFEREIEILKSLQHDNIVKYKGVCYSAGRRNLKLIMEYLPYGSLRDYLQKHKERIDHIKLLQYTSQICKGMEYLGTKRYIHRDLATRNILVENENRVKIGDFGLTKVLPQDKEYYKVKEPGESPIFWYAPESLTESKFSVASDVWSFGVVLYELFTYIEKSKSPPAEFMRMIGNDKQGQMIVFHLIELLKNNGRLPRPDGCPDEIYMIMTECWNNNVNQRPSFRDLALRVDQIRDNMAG

Row | SMILES | IC50 (GST-JAK2(808-1132)) [µM] | IC50 [1, 2] [µM] | IC50 ([1]; STAT1 translocation pathway) [µM]
1 | C[C@@H]1CN(Cc2ccc(Nc3ncc4ccn(-c5cc(F)c(C(=O)N6CCOCC6)c(F)c5)c4n3)cc2)[C@@H](C)CN1 (racemic) [Example 261, (4-{2-[4-((2S,5R)-2,5-Dimethyl-piperazin-1-ylmethyl)-phenylamino]-pyrrolo[2,3-d]pyrimidin-7-yl}-2,6-difluoro-phenyl)-morpholin-4-yl-methanone] | 0.012 | 0.18 | 
2 | C[C@@H]1CN[C@@H](C)CN1c1ccc(Nc2ncc3ccn(-c4cc(F)c(C(=O)N5CCOCC5)c(F)c4)c3n2)cn1 (racemic) [Example 269, (4-{2-[6-((2R,5S)-2,5-Dimethyl-piperazin-1-yl)-pyridin-3-ylamino]-pyrrolo[2,3-d]pyrimidin-7-yl}-2,6-difluoro-phenyl)-morpholin-4-yl-methanone] | 0.01 | 0.465 | 
3 | C[C@@H]1CN[C@@H](C)CN1c1ccc(Nc2ncc3ccn(-c4cc(F)c(CN5CCOCC5)c(F)c4)c3n2)cn1 (racemic) [Example 271, [7-(3,5-Difluoro-4-morpholin-4-ylmethyl-phenyl)-7H-pyrrolo[2,3-d]pyrimidin-2-yl]-[6-((2R,5S)-2,5-dimethyl-piperazin-1-yl)-pyridin-3-yl]-amine] | 0.0031 | 0.065 | 
4 | COc1cc(Nc2ncc3ccn(-c4ccc(S(=O)(=O)NC(C)(C)C)cc4)c3n2)cc(OC)c1OC [Example 8, N-tert-Butyl-4-[2-(3,4,5-trimethoxy-phenylamino)-pyrrolo[2,3-d]pyrimidin-7-yl]-benzenesulfonamide] | < 0.003 | 0.032 | 
5 | CCN(CC)C(=O)N1CCN(c2ccc(Nc3ncc4ccn(-c5ccc(S(C)(=O)=O)cc5)c4n3)cc2)CC1 [Example 13, 4-{4-[7-(4-Methanesulfonyl-phenyl)-7H-pyrrolo[2,3-d]pyrimidin-2-ylamino]-phenyl}-piperazine-1-carboxylic acid diethylamide] | 0.0038 | 0.032 | 
6 | CN1CCC(c2ccc(Nc3ncc4ccn(-c5ccc(S(C)(=O)=O)cc5)c4n3)cc2)CC1 [Example 16, [7-(4-Methanesulfonyl-phenyl)-7H-pyrrolo[2,3-d]pyrimidin-2-yl]-[4-(1-methyl-piperidin-4-yl)-phenyl]-amine] | < 0.003 | 0.025 | 
7 | CN1CCN(c2cccc(Nc3ncc4ccn(-c5ccc(S(C)(=O)=O)cc5)c4n3)c2)CC1 [Example 17, [7-(4-Methanesulfonyl-phenyl)-7H-pyrrolo[2,3-d]pyrimidin-2-yl]-[3-(4-methyl-piperazin-1-yl)-phenyl]-amine] | < 0.003 | 0.0205 | 
8 | COc1ccc(Nc2ncc3ccn(-c4ccc(S(C)(=O)=O)cc4)c3n2)cc1OCCCN(C)C [Example 27, [3-(3-Dimethylamino-propoxy)-4-methoxy-phenyl]-[7-(4-methanesulfonyl-phenyl)-7H-pyrrolo[2,3-d]pyrimidin-2-yl]-amine] | < 0.003 | 0.085 | 
9 | CS(=O)(=O)c1ccc(-n2ccc3cnc(Nc4ccc(C(=O)N5CCOCC5)cc4)nc32)cc1 [Example 30, {4-[7-(4-Methanesulfonyl-phenyl)-7H-pyrrolo[2,3-d]pyrimidin-2-ylamino]-phenyl}-morpholin-4-yl-methanone] | < 0.003 | 0.205 | 
10 | COc1ccc(Nc2ncc3ccn(-c4ccc(S(C)(=O)=O)cc4)c3n2)cc1OCCN1CCCC1 [Example 31, [7-(4-Methanesulfonyl-phenyl)-7H-pyrrolo[2,3-d]pyrimidin-2-yl]-[4-methoxy-3-(2-pyrrolidin-1-yl-ethoxy)-phenyl]-amine] | < 0.003 | 0.046 | 
11 | CS(=O)(=O)c1ccc(-n2ccc3cnc(Nc4ccc(OCCN5CCOCC5)cc4)nc32)cc1 [Example 34, [7-(4-Methanesulfonyl-phenyl)-7H-pyrrolo[2,3-d]pyrimidin-2-yl]-[4-(2-morpholin-4-yl-ethoxy)-phenyl]-amine] | < 0.003 | 0.0695 | 
12 | CCN(CC)CCOc1cccc(Nc2ncc3ccn(-c4ccc(S(C)(=O)=O)cc4)c3n2)c1 [Example 36, [3-(2-Diethylamino-ethoxy)-phenyl]-[7-(4-methanesulfonyl-phenyl)-7H-pyrrolo[2,3-d]pyrimidin-2-yl]-amine] | < 0.003 | 0.0109 | 
13 | CN1CCN(C(=O)c2cccc(Nc3ncc4ccn(-c5ccc(S(C)(=O)=O)cc5)c4n3)c2)CC1 [Example 39, {3-[7-(4-Methanesulfonyl-phenyl)-7H-pyrrolo[2,3-d]pyrimidin-2-ylamino]-phenyl}-(4-methyl-piperazin-1-yl)-methanone] | 0.014 | 1.37 | 
14 | CN(C)CCNC(=O)c1ccc(Nc2ncc3ccn(-c4ccc(S(C)(=O)=O)cc4)c3n2)cc1 [Example 40, N-(2-Dimethylamino-ethyl)-4-[7-(4-methanesulfonyl-phenyl)-7H-pyrrolo[2,3-d]pyrimidin-2-ylamino]-benzamide] | < 0.003 | 0.155 | 

Results, then the compound that gave them:

Row | IC50 (GST-JAK2(808-1132)) [µM] | IC50 [1, 2] [µM] | IC50 ([1]; STAT1 translocation pathway) [µM] | SMILES
15 | 0.0072 | 0.52 |  | C[C@@H]1CN[C@@H](C)CN1c1ccc(Nc2ncc3ccn(-c4ccc(S(C)(=O)=O)cc4)c3n2)cn1 (racemic) [Example 274, [6-((2R,5S)-2,5-Dimethyl-piperazin-1-yl)-pyridin-3-yl]-[7-(4-methanesulfonyl-phenyl)-7H-pyrrolo[2,3-d]pyrimidin-2-yl]-amine]
16 | < 0.003 | 0.0435 |  | CCOc1ccc(Nc2ncc3ccn(-c4ccc(S(C)(=O)=O)cc4)c3n2)cc1OCC [Example 1, (3,4-Diethoxy-phenyl)-[7-(4-methanesulfonyl-phenyl)-7H-pyrrolo[2,3-d]pyrimidin-2-yl]-amine]
17 | 0.0032 | 0.19 |  | CN1CCN(C(=O)c2ccc(Nc3ncc4ccn(-c5cc(F)c(CN6CCOCC6)c(F)c5)c4n3)cc2)CC1 [Example 2, {4-[7-(3,5-Difluoro-4-morpholin-4-ylmethyl-phenyl)-7H-pyrrolo[2,3-d]pyrimidin-2-ylamino]-phenyl}-(4-methyl-piperazin-1-yl)-methanone]
18 | 0.0094 |  | 0.0985 | CC(C)Oc1ccc(Nc2ncc3ccn(-c4ccc(S(C)(=O)=O)cc4)c3n2)cc1 [Example 3, (4-Isopropoxy-phenyl)-[7-(4-methanesulfonyl-phenyl)-7H-pyrrolo[2.3-d]pyrimidin-2-yl]-amine]
19 | 0.0022 | 0.0367 |  | COc1cc(Nc2ncc3ccn(-c4ccc(S(C)(=O)=O)cc4)c3n2)cc(OC)c1OC [Example 4, [7-(4-Methanesulfonyl-phenyl)-7H-pyrrolo[2,3-d]pyrimidin-2-yl]-(3,4,5-trimethoxy-phenyl)-amine]
20 | 0.0062 | 0.255 |  | COc1ccc(Nc2ncc3ccn(-c4ccc(C(=O)NC(C)(C)C)cc4)c3n2)cc1OC [Example 7, N-tert-Butyl-4-[2-(3,4-dimethoxy-phenylamino)-pyrrolo[2,3-d]pyrimidin-7-yl]-benzamide]
21 | < 0.003 | 0.091 |  | COc1ccc(Nc2ncc3ccn(-c4ccc(S(C)(=O)=O)cc4)c3n2)cc1OCCN1CCOCC1 [Example 29, [7-(4-Methanesulfonyl-phenyl)-7H-pyrrolo[2,3-d]pyrimidin-2-yl]-[4-methoxy-3-(2-morpholin-4-yl-ethoxy)-phenyl]-amine]
